From PubChem BioAssay AID651883 (Southern Research Specialized Biocontainment Screening …, 2012) come the findings set out here.

The subject of the assay is VEEV Trinidad donkey virus titer reduction, cell culture. As to the kind of experiment: VEEV Trinidad donkey titer reduction, cell-based, Trinidad donkey strain (AID 651883). The conditions noted are these: stronger effect = lower value.

On to `CN1CCN(C)C(=Nc2ccc([N+](=O)[O-])cc2C(=O)Nc2ccccc2)C1`, for which the log virus titer change reads like this: (at 5 µM) below -5.95; (titer change, at 0.5 µM) below -5.95; (titer change, at 1 µM) below -5.95; (titer change, at 2 µM) below -5.95.

Take `CCN1CCN(Cc2nc3ccc([N+](=O)[O-])cc3c(=O)n2-c2ccccc2F)CC1`: the log virus titer change was -5.84 (at 5 µM); -0.518 (titer change, at 0.5 µM); -2.39 (titer change, at 1 µM); below -5.95 (titer change, at 2 µM).

For `CCN1CCN(C)CC1=Nc1ccc([N+](=O)[O-])cc1C(=O)Nc1ccccc1`, the log virus titer change (at 5 µM) is below -5.95; the log virus titer change (titer change, at 0.5 µM) is below -5.95; the log virus titer change (titer change, at 1 µM) is below -5.95; the log virus titer change (titer change, at 2 µM) is below -5.95.

For `COc1ccc(NC(=O)c2cc([N+](=O)[O-])ccc2N=C2CN(C)CCN2C)cc1`, the log virus titer change is, setting by setting: (at 5 µM) below -5.95; (titer change, at 0.5 µM) below -5.95; (titer change, at 1 µM) below -5.95; (titer change, at 2 µM) below -5.95.
